From PubChem BioAssay (NCI)
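Protocol summary: plate cells (96-well), add compound at 5 concentrations, incubate 48 h, interpolate endpoints linearly. GI50 is the concentration that inhibits growth by half. TGI: total growth inhibition.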

Key:
Assay in all cases: NCI tumour cell line growth inhibition, 48 h
DMS 273 small cell lung = system: DMS 273 small cell lung
DLD-1 colon = system: DLD-1 colon
M19-MEL melanoma = system: M19-MEL melanoma
KM20L2 colon = system: KM20L2 colon
HOP-18 NSCLC = system: HOP-18 NSCLC
XF 498 CNS = system: XF 498 CNS
DMS 114 small cell lung = system: DMS 114 small cell lung
RXF-631 renal = system: RXF-631 renal
MDA-N = system: MDA-N

SMILES | TGI (DMS 273 small cell lung) [µM] | TGI (DLD-1 colon) [µM] | TGI (M19-MEL melanoma) [µM] | TGI (KM20L2 colon) [µM] | TGI (HOP-18 NSCLC) [µM] | TGI (XF 498 CNS) [µM] | TGI (DMS 114 small cell lung) [µM] | TGI (RXF-631 renal) [µM] | TGI (MDA-N) [µM] | GI50 (MDA-N) [µM]
c1ccc2c(CNCCCCCCCCCCCCNCc3cccc4ccccc34)cccc2c1 | > 100 | 3.31 | 3.22 | 3.37 | 9.56 | 3.11 |  |  |  | 
Cc1ccccc1NC(=O)c1ccc([N+](=O)[O-])cc1 | > 100 | > 100 | > 100 | > 100 | > 100 | > 100 | > 100 |  |  | 
CCOC(=O)C(C(=O)OCC)=c1sc(=C(C(=O)OCC)C(=O)OCC)s1 | > 100 | > 100 | > 100 | > 100 |  |  |  |  |  | 
Cc1c(CC/C(=N\Nc2ccc([N+](=O)[O-])cc2[N+](=O)[O-])c2ccccc2)c2ccccc2n1C | > 100 | > 100 | > 100 | > 100 |  | > 100 | > 100 | > 100 |  | 
CC(C)C1COC(c2ccc3ccccc3c2-c2c(O[Si](C)(C)C(C)(C)C)ccc3ccccc23)=N1 (configuration not stated) | 42.8 | 31.4 | 33.7 | 37.2 |  | 28.9 | 30.9 | 61.3 |  | 
FC(F)(F)c1nc(-c2ccccc2)oc1Sc1oc(-c2ccccc2)nc1C(F)(F)F | > 100 | > 100 | > 100 | > 100 | > 100 | > 100 | > 100 |  |  | 
CC(C)c1ccc2nc3ccc(C(=O)NCCN4CCN(c5ccccc5)CC4)cn3c(=O)c2c1 |  |  |  |  |  |  |  |  | > 100 | 
O=c1ccnc(SCc2ccc(Cl)cc2)[nH]1 |  |  |  |  |  |  |  |  | > 100 | 
CC(C)(C)C(=O)/C=C/c1cccc(Oc2ccccc2)c1 |  | 28.5 | 54.2 | 28.2 | 30.2 | 32.9 |  | > 100 |  | 
COC(=O)[C@@]12C=CC(=O)[C@H]3C[C@@H](C(C(C)C)C1)[C@]32OC (some centres not stated) | > 100 | > 100 | > 100 | > 100 | > 100 | > 100 | > 100 | > 100 |  | 
COc1ccc(C2C3=C(COC3=O)Oc3cc4c(cc32)OCO4)cc1 (configuration not stated) | > 100 | > 100 | > 100 | 38.9 | 89.5 | > 100 | 38.2 |  |  | 
O=C(C=Nc1ccccc1C(=O)[O-])c1cccs1.O=C(C=Nc1ccccc1C(=O)[O-])c1cccs1.[Zn+2] | > 100 | > 100 |  | > 100 | > 100 |  |  |  |  | 
COC1=C(OC)[C@]2(OC)c3c(O)c(OC)c4c(c3O[C@@]23O[C@@H](c2ccccc2)CC=C3C1=O)[C@@H](O)C[C@H](c1ccccc1)O4 |  |  |  |  |  |  |  |  | 0.424 | 0.196
FC(F)(F)c1cccc(C2SCc3nc4ccccc4n32)c1 (configuration not stated) | > 100 | > 100 | > 100 |  |  |  | > 100 |  |  | 
COC1CC(OC)C(O)C(CO)O1 (configuration not stated) |  | > 100 | > 100 | > 100 | > 100 | > 100 |  |  |  | 
CC(=O)[O][Bi]([c]1ccccc1)[c]1ccccc1 |  |  |  |  |  |  |  |  | 20.3 | 7.57
CCCCCCCCCCCCCCCCCC[N+](C)(C)Cc1ccc(C[N+](C)(C)CCCCCCCCCCCCCCCCCC)cc1 | 45.9 | 57.3 | 59.8 | 92.7 | 34.8 |  | 34.1 | 57.1 |  | 
Cc1ccc(NC(=O)CC2C(=O)Nc3ccccc3S2=O)c(C)c1 (configuration not stated) | > 54.1 | > 76.5 | > 69.1 | > 49.1 | 67.4 | 28.7 | 34.4 | > 71.3 |  | 
Nc1nc(=Nc2ccccc2)ss1 | > 100 | > 100 | > 100 | > 100 | > 100 | > 100 | > 100 | > 100 |  | 
CC1=Nc2ccccc2C12C(c1ccccc1)C(c1ccccc1)C(=O)N1c3ccccc3CC12 (configuration not stated) | > 100 | > 100 |  | > 100 |  | 87.2 | > 100 | > 100 |  | 
